Where “and” joins values, the source holds several entries; their conditions need not be identical. Equal values may be shown once. Read-outs that look alike come from different tables or passages of the source.
Experiments:
[1] = system: M. avium clinical isolate Koav 15 (WT); assay: microbe, parasite or virus in culture; assay type: cell-based; details: Mycobacterium avium, drug alone, day 14, read-out: MIC
[2] = system: M. avium clinical isolate Koav 2 (WT); assay: microbe, parasite or virus in culture; assay type: cell-based; details: Mycobacterium avium, drug alone, day 14
[3] = system: M. avium clinical isolate Koav 25 (WT); assay: microbe, parasite or virus in culture; assay type: cell-based; details: Mycobacterium avium, drug alone, day 14, read-out: MIC
[4] = system: M. avium clinical isolate Koav 3 (GyrA Asp95Gly); assay type: cell-based, M. avium subsp. hominissuis
[5] = system: M. avium clinical isolate Koav 20 (WT); assay: microbe, parasite or virus in culture; assay type: cell-based; details: Mycobacterium avium, drug alone, day 14, read-out: MIC
[6] = system: M. avium clinical isolate Koav 11 (GyrA Asp95Tyr); assay type: cell-based, M. avium subsp. hominissuis
[7] = system: M. avium clinical isolate Koav 15 (WT); assay: microbe, parasite or virus in culture; assay type: cell-based; details: checkerboard; for MIC: Mycobacterium avium
[8] = system: M. avium clinical isolate Koav 21 (WT); assay: microbe, parasite or virus in culture; assay type: cell-based; details: Mycobacterium avium, drug alone, day 14, read-out: MIC
[9] = system: M. avium clinical isolate Koav 1 (WT); assay: microbe, parasite or virus in culture; assay type: cell-based; details: checkerboard; for MIC of drug alone: single replicates; for MIC: Mycobacterium avium
[10] = system: M. avium clinical isolate Koav 19 (WT); assay: microbe, parasite or virus in culture; assay type: cell-based; details: Mycobacterium avium, drug alone, day 14, read-out: MIC
[11] = system: M. avium clinical isolate Cl-A-2 (GyrA Asp95Tyr); assay type: cell-based, M. avium subsp. hominissuis
[12] = system: M. avium clinical isolate Koav 20 (WT); assay: microbe, parasite or virus in culture; assay type: cell-based; details: checkerboard; for MIC: Mycobacterium avium
[13] = system: M. avium clinical isolate Koav 25 (WT); assay: microbe, parasite or virus in culture; assay type: cell-based; details: for FIC of INH or EMB: pair with WQ-3810; for MIC: Mycobacterium avium
[14] = system: M. avium clinical isolate Koav 1 (WT); assay: microbe, parasite or virus in culture; assay type: cell-based; details: Mycobacterium avium, drug alone, day 14, read-out: MIC
[15] = system: M. avium clinical isolate Koav 13 (GyrA Asp95Gly); assay type: cell-based, M. avium subsp. hominissuis
[16] = system: M. avium clinical isolate Koav 19 (WT); assay: microbe, parasite or virus in culture; assay type: cell-based; details: for MIC: Mycobacterium avium
[17] = system: M. avium clinical isolate Koav 13 (GyrA Asp95Gly); assay type: cell-based, M. avium subsp. hominissuis; remark: listed apart in the source
[18] = system: M. avium clinical isolate Cl-A-2 (GyrA Asp95Tyr); assay type: cell-based, M. avium subsp. hominissuis; remark: listed apart in the source
[19] = system: M. avium clinical isolate Koav 2 (WT); assay: microbe, parasite or virus in culture; assay type: cell-based; details: checkerboard; for MIC: Mycobacterium avium
[20] = system: M. avium clinical isolate Koav 11 (GyrA Asp95Tyr); assay type: cell-based, M. avium subsp. hominissuis; remark: listed apart in the source
[21] = system: M. avium clinical isolate Koav 21 (WT); assay: microbe, parasite or virus in culture; assay type: cell-based; details: checkerboard; for MIC: Mycobacterium avium
[22] = system: M. avium clinical isolate Koav 3 (GyrA Asp95Gly); assay type: cell-based, M. avium subsp. hominissuis; remark: listed apart in the source
[23] = Koav 15 (K 15), WT, single replicates, read-out: MIC of drug alone
[24] = read-out: MIC of INH or EMB with 1 µg/ml MXF, Koav 15 (K 15), WT
[25] = read-out: MIC of INH or EMB with WQ-3810, Koav 15 (K 15), WT
[26] = read-out: MIC of INH or EMB with WQ-3810, Koav 1 (K 1), WT
[27] = Koav 25 (K 25), WT, checkerboard
[28] = Koav 25 (K 25), WT, checkerboard, single replicates, read-out: MIC of drug alone
[29] = read-out: MIC of INH or EMB with 1 µg/ml MXF, Koav 25 (K 25), WT, checkerboard
[30] = read-out: MIC of INH or EMB with WQ-3810, Koav 25 (K 25), WT, checkerboard
[31] = Koav 19 (K 19), WT, checkerboard, single replicates
[32] = Koav 19 (K 19), WT, pair with MXF
[33] = Koav 19 (K 19), WT, checkerboard, single replicates, read-out: MIC of drug alone
[34] = read-out: MIC of INH or EMB with 1 µg/ml MXF, Koav 19 (K 19), WT, checkerboard
[35] = Koav 2 (K 2), WT, single replicates, read-out: MIC of drug alone
[36] = read-out: MIC of INH or EMB with WQ-3810, Koav 2 (K 2), WT
[37] = Koav 21 (K 21), WT, single replicates, read-out: MIC of drug alone
[38] = read-out: MIC of INH or EMB with 1 µg/ml MXF, Koav 21 (K 21), WT

NNC(=O)c1ccncc1 [INH, isoniazid]
16 µg/mL: MIC [5] | MIC of drug alone ([7]; Koav 15 (K 15), WT, single replicates) | MIC [8] | MIC of drug alone ([13]; Koav 25 (K 25), WT, checkerboard, single replicates) | MIC of drug alone [16, 31] | MIC [19, 36] | MIC [21, 37]
8 to 16 µg/mL: MIC [10]
128 µg/mL: MIC [2] | MIC [19, 35]
4 µg/mL: MIC of INH or EMB with 1 µg/ml MXF ([7]; Koav 15 (K 15), WT) | MIC [7, 25] | MIC [9, 26] | MIC of INH or EMB with 1 µg/ml MXF ([12]; Koav 20 (K 20), WT) | MIC of INH or EMB with WQ-3810 [13, 27] | MIC [22]
16 µg/mL and 32 µg/mL and 8 µg/mL: MIC of drug alone ([9]; Koav 1 (K 1), WT)
2 µg/mL: MIC of INH or EMB with 1 µg/ml MXF [6] | MIC of INH or EMB with WQ-3810 [6] | MIC of INH or EMB with 1 µg/ml MXF ([9]; Koav 1 (K 1), WT) | MIC of INH or EMB with 1 µg/ml MXF [11] | MIC of INH or EMB with WQ-3810 [11] | MIC ([12]; read-out: MIC of INH or EMB with 1 µg/ml MXF, Koav 20 (K 20), WT) | MIC [13, 29] | MIC [13, 30]
8 µg/mL: MIC [3] | MIC of INH or EMB with WQ-3810 ([7]; Koav 15 (K 15), WT) | MIC [7, 24] | MIC of INH or EMB with WQ-3810 ([9]; Koav 1 (K 1), WT) | MIC [13, 28] | MIC [14] | MIC [16, 33] | MIC ([19]; read-out: MIC of INH or EMB with 1 µg/ml MXF, Koav 2 (K 2), WT) | MIC [20]
32 µg/mL and 16 µg/mL and 64 µg/mL: MIC of drug alone ([12]; Koav 20 (K 20), WT, single replicates)
8 µg/mL and 16 µg/mL: MIC of drug alone [6]
1 µg/mL: MIC ([9]; read-out: MIC of INH or EMB with 1 µg/ml MXF, Koav 1 (K 1), WT) | MIC of INH or EMB with 1 µg/ml MXF [13, 27] | MIC [16, 34] | MIC [21, 38]
0.0625 µg/mL: FIC of INH or EMB [16, 32]
8 µg/mL and 4 µg/mL: MIC of INH or EMB with 1 µg/ml MXF [15] | MIC of INH or EMB with WQ-3810 [15]
4 µg/mL and 8 µg/mL: MIC of drug alone [4] | MIC of drug alone [11]
0.5 µg/mL and 0.25 µg/mL: FIC of INH or EMB [11]
4 to 8 µg/mL: MIC [18]
0.25 µg/mL: FIC of INH or EMB ([13]; Koav 25 (K 25), WT)
2 µg/mL and 1 µg/mL: MIC of INH or EMB with 1 µg/ml MXF [4] | MIC of INH or EMB with WQ-3810 [4]
32 µg/mL: MIC [1] | MIC [7, 23] | MIC of drug alone [15] | MIC [17]

CC[C@@H](CO)NCCN[C@@H](CC)CO [EMB, ethambutol]
8 µg/mL and 16 µg/mL: MIC of INH or EMB with WQ-3810 [15]
16 µg/mL: MIC [1] | MIC [2] | MIC [7, 23] | MIC [10] | MIC of drug alone [11] | MIC [13, 29] | MIC [13, 30] | MIC of INH or EMB with 1 µg/ml MXF [15] | MIC of drug alone [16, 31] | MIC [18] | MIC [19, 35] | MIC [20] | MIC ([21]; read-out: MIC of INH or EMB with WQ-3810, Koav 21 (K 21), WT) | MIC [22]
8 µg/mL and 4 µg/mL and 2 µg/mL: MIC of drug alone ([9]; Koav 1 (K 1), WT)
2 µg/mL: MIC [5] | MIC of INH or EMB with WQ-3810 ([9]; Koav 1 (K 1), WT) | MIC ([12]; Koav 20 (K 20), WT, single replicates, read-out: MIC of drug alone) | MIC [14] | MIC [21, 38]
0.5 µg/mL: FIC of INH or EMB ([13]; Koav 25 (K 25), WT) | FIC of INH or EMB [16, 32] | FIC of INH or EMB ([16]; Koav 19 (K 19), WT, pair with WQ-3810)
1 µg/mL: MIC of INH or EMB with 1 µg/ml MXF ([21]; Koav 21 (K 21), WT)
4 µg/mL and 2 µg/mL: MIC of INH or EMB with 1 µg/ml MXF [4]
4 µg/mL: MIC of INH or EMB with 1 µg/ml MXF ([7]; Koav 15 (K 15), WT) | MIC [7, 25] | MIC [9, 26] | MIC ([16]; read-out: MIC of INH or EMB with WQ-3810, Koav 19 (K 19), WT, checkerboard)
32 µg/mL: MIC [3] | MIC [8] | MIC [13, 28] | MIC of drug alone [15] | MIC [17] | MIC of drug alone ([19]; Koav 2 (K 2), WT, single replicates) | MIC [21, 37]
8 µg/mL: MIC of INH or EMB with WQ-3810 ([7]; Koav 15 (K 15), WT) | MIC [7, 24] | MIC of INH or EMB with 1 µg/ml MXF [13, 27] | MIC of INH or EMB with WQ-3810 ([16]; Koav 19 (K 19), WT, checkerboard) | MIC [16, 33] | MIC [16, 34] | MIC [19, 36]
2 µg/mL and 4 µg/mL: MIC of INH or EMB with 1 µg/ml MXF [11]
